Tests used:
Format in all cases: in vivo
[1] = test system: ryegrass, Italian (Italian ryegrass, Lolium multiflorum); experiment: Test C greenhouse herbicide test, pre- and postemergence
In short: (§1)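 Seeds sown in loam–sand blend treated preemergence; plants in peat-based medium sprayed postemergence at 2–18 cm (1- to 4-leaf stage); chemicals in non-phytotoxic solvent with surfactant. Greenhouse 13–15 d, then visual rating versus controls on 0–100 scale (0 no effect, 100 complete control).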

[2] = test system: soybean (Glycine max); experiment: as above
In short: as §1

[3] = test system: johnsongrass (Sorghum halepense); experiment: as above
In short: as §1

[4] = test system: blackgrass (Alopecurus myosuroides); experiment: as above
In short: as §1

[5] = test system: waterhemp (common waterhemp, Amaranthus rudis); experiment: as above
In short: as §1

[6] = test system: morningglory (Ipomoea coccinea); experiment: as above
In short: as §1

[7] = test system: barnyardgrass (Echinochloa crus-galli); experiment: as above
In short: as §1

[8] = test system: wheat (winter wheat, Triticum aestivum); experiment: as above
In short: as §1

[9] = test system: foxtail, giant (giant foxtail, Setaria faberii); experiment: as above
In short: as §1

[10] = test system: lambsquarters (Chenopodium album); experiment: as above
In short: as §1

[11] = test system: ragweed (common ragweed, Ambrosia elatior); experiment: as above
In short: as §1

[12] = test system: pigweed (Amaranthus retroflexus); experiment: as above
In short: as §1

[13] = test system: corn (Zea mays); experiment: as above
In short: as §1

[14] = test system: crabgrass, large (large crabgrass, Digitaria sanguinalis); experiment: as above
In short: as §1

[15] = test system: oat, wild (wild oat, Avena fatua); experiment: Test C greenhouse herbicide test, postemergence
In short: (§2)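 Visual injury scores (0–100, where 100 means complete control) were assigned 13 to 15 d after postemergence application, by comparison with untreated plants. Treated seedlings stood 2 to 18 cm tall, at the 1- to 4-leaf stage.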

[16] = test system: kochia (Kochia scoparia); experiment: Test C greenhouse herbicide test, postemergence
In short: as §2

[17] = Postemergence, 31 g ai/ha, 0 to 100 scale (0 no effect, 100 complete control)
[18] = Postemergence, 125 g ai/ha, scale 0 to 100, 0 is no effect, 100 is complete control
[19] = Postemergence, 250 g ai/ha, scale 0 to 100, 0 no effect, 100 complete control, 13 to 15 d
[20] = postemergence, 62 g ai/ha, scale 0 to 100, 0 no effect, 100 complete control

Cc1nn(C)c(=O)c(-c2c(C)sc3ccccc23)c1O [Compound 65]
Ryegrass, Italian plant response rating [1, 17]: 65
Plant response rating, Ryegrass, Italian [1, 18]: 85
Plant response rating, Ryegrass, Italian [1, 19]: 85
Ryegrass, Italian plant response rating [1, 20]: 80
Soybean plant response rating [2, 17]: 5
Plant response rating, Soybean [2, 18]: 5
Plant response rating, Soybean [2, 19]: 10
Soybean plant response rating [2, 20]: 5
Johnsongrass plant response rating [3, 17]: 5
Plant response rating, Johnsongrass [3, 18]: 5
Plant response rating, Johnsongrass [3, 19]: 5
Johnsongrass plant response rating [3, 20]: 5
Blackgrass plant response rating [4, 17]: 5
Plant response rating, Blackgrass [4, 18]: 10
Plant response rating, Blackgrass [4, 19]: 40
Blackgrass plant response rating [4, 20]: 5
Waterhemp plant response rating [5, 17]: 60
Plant response rating, Waterhemp [5, 18]: 75
Plant response rating, Waterhemp [5, 19]: 85
Waterhemp plant response rating [5, 20]: 75
Morningglory plant response rating [6, 17]: 75
Plant response rating, Morningglory [6, 18]: 95
Plant response rating, Morningglory [6, 19]: 95
Morningglory plant response rating [6, 20]: 85
Barnyardgrass plant response rating [7, 17]: 10
Plant response rating, Barnyardgrass [7, 18]: 35
Plant response rating, Barnyardgrass [7, 19]: 50
Barnyardgrass plant response rating [7, 20]: 15
Wheat plant response rating [8, 17]: 0
Plant response rating, Wheat [8, 18]: 0
Plant response rating, Wheat [8, 19]: 0
Wheat plant response rating [8, 20]: 0
Foxtail, Giant plant response rating [9, 17]: 10
Plant response rating, Foxtail, Giant [9, 18]: 35
Plant response rating, Foxtail, Giant [9, 19]: 60
Foxtail, Giant plant response rating [9, 20]: 20
Lambsquarters plant response rating [10, 17]: 90
Plant response rating, Lambsquarters [10, 18]: 95
Plant response rating, Lambsquarters [10, 19]: 100
Lambsquarters plant response rating [10, 20]: 95
Ragweed plant response rating [11, 17]: 55
Plant response rating, Ragweed [11, 18]: 80
Plant response rating, Ragweed [11, 19]: 90
Ragweed plant response rating [11, 20]: 85
Pigweed plant response rating [12, 17]: 90
Plant response rating, Pigweed [12, 18]: 98
Plant response rating, Pigweed [12, 19]: 100
Pigweed plant response rating [12, 20]: 90
Corn plant response rating [13, 17]: 5
Plant response rating, Corn [13, 18]: 5
Plant response rating, Corn [13, 19]: 5
Corn plant response rating [13, 20]: 5
Crabgrass, Large plant response rating [14, 17]: 5
Plant response rating, Crabgrass, Large [14, 18]: 20
Plant response rating, Crabgrass, Large [14, 19]: 25
Crabgrass, Large plant response rating [14, 20]: 20
Oat, Wild plant response rating [15, 17]: 25
Plant response rating, Oat, Wild [15, 18]: 50
Plant response rating, Oat, Wild [15, 19]: 70
Oat, Wild plant response rating [15, 20]: 35
Kochia plant response rating [16, 17]: 90
Plant response rating, Kochia [16, 18]: 90
Plant response rating, Kochia [16, 19]: 100
Kochia plant response rating [16, 20]: 90
